Experimental data taken from patent US20240150330A1, “CHROMANS AND BENZOFURANS AS 5-HT1A AND TAAR1 AGONISTS” (Sunovion Pharmaceuticals Inc., priority 2021, published 2024).

What was measured:
[1] = biological target: T1, human 5-HT1A receptor (Homo sapiens, UniProt P08908); test: 5-HT1A Radioligand Binding Assay; conditions: 1 μM test compound; competition with 0.9 nM [3H]-8-OH-DPAT; membranes of 5-HT1A expressing CHO-K1 cells
T1 construct: expressed in transfected cells; host or cells: CHO-K1
T1 sequence (P08908 1-422): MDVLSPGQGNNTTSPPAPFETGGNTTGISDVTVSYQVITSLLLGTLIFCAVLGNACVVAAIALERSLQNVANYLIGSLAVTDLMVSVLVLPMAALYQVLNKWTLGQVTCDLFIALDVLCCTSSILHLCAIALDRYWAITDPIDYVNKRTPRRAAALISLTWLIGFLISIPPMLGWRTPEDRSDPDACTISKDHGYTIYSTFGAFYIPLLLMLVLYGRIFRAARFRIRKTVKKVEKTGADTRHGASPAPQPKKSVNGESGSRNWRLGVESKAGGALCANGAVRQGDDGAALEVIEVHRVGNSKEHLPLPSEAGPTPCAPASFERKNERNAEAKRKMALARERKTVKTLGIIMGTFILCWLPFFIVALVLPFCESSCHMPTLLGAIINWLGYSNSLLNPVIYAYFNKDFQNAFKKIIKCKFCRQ
Protocol: Cells expressing the human 5-HT1A receptor were grown to mid-log phase in complete culture medium and then scraped from the culture vessels in ice-cold Ca^2+- and Mg^2+-free Phosphate-buffered saline. The cells were then centrifuged for 10 minutes at 5,000×g and 4° C. and the pellets resuspended in buffer A (15 mM Tris-HCl pH 7.5; 2 mM MgCl2; 0.3 mM EDTA; 1 mM EGTA) and homogenized in a glass-glass homogenizer. The crude membrane fraction was collected by two consecutive centrifugation steps at 35,000×g and 4° C. for 30 minutes separated by a wash step with buffer A. The final membrane pellet was suspended in buffer B (75 mM Tris-HCl pH 7.5; 12.5 mM MgCl2; 0.3 mM EDTA; 1 mM EGTA; 250 mM sucrose) and flash-frozen in liquid nitrogen. Protein content was determined by the BCA method (Interchim, UP40840A).
Radioligand competition binding was performed in duplicate in the wells of a 96 well plate (Master Block, Greiner, 786201) containing binding buffer (50 mM Tris, 5 mM CaCl2, 0.1% ascorbic acid, 10 μg/ml saponin, pH7.4), membrane extracts prepared from the 5-HT1A expressing CHO-K1 cell line (7 μg protein/well), reference tracer (0.9 nM [^3H]-8-OH-DPAT) and test compound in a final volume of 0.1 ml. Nonspecific binding was determined by co-incubation with 200-fold excess of reference competitor (5-HT). The samples were incubated for 1 hour at 25° C., and then filtered over GF/B Unifilter plates (Perkin Elmer 6005177) presoaked in 0.5% PEI, using a Filtermate Harvester (Perkin Elmer, C96162). Filters were washed six times with 0.5 ml ice-cold buffer (50 mM Tris pH 7.4) and 50 μl of Microscint 20 (Packard) were added to each well. The plates were incubated 15 minutes on an orbital shaker and then counted with a TopCount NXT (Packard, C384V01) for 1 minute/well.
Compounds were tested at 1 and 10 μM concentrations, in duplicate: […]

[2] = biological target: T2, TAAR1 receptor (UniProt Q96RJ0); test: TAAR1 Agonist cAMP Assay; format: cell-based, human or mouse; conditions: CHO-K1 cells expressing TAAR1; cAMP HTRF; 30 minutes at room temperature
T2 sequence (Q96RJ0 1-339): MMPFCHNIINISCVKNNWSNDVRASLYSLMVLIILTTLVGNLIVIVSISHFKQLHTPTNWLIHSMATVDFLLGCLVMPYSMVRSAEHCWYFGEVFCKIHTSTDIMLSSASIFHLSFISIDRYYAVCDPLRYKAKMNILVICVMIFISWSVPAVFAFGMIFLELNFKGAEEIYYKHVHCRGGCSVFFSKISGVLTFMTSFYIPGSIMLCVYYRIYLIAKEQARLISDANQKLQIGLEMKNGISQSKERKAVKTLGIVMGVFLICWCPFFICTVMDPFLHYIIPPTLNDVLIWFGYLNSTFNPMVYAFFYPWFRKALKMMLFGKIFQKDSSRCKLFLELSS
Protocol: CHO-K1 cells expressing the human TAAR1 receptor (Accession number NP_612200.1) or mouse TAAR1 receptor (Accession number NP_444435.1) were grown in media (Advanced DMEM supplemented with 1% dialyzed fetal bovine serum) without antibiotics. The cells were detached by gentle flushing with phosphate buffered saline containing 5 mM EDTA, recovered by centrifugation and resuspended in assay buffer (Krebs-Ringers Henseleit buffer: 5 mM KCl, 1.25 mM MgSO4, 124 mM NaCl, 25 mM HEPES, 13.3 mM Glucose, 1.25 mM KH2PO4, 1.45 mM CaCl2, 0.5 g/L BSA, supplemented with 1 mM isobutylmethylxanthine). Testing was performed in 384-well plates. 5 μl of cells (3000 cells) were mixed with 5 μl of the test compound diluted in assay buffer and then incubated for 30 minutes at room temperature. cAMP levels were determined using the Cisbio cAMP Gs dynamic HTRF kit (Cisbio, Bedford, MA). The results of the testing are shown in Table 3, with EC50 ranges designated as follows: • A=0.1 μM to 1 μM • B=0.01 μM to <0.1 μM • C=0.001 μM to <0.01 μM • D=0.0001 μM to <0.001 μM

| inhibition at 1 µM [1] [%] | EC50 [2] [nM] | SMILES |
| --- | --- | --- |
| > 50 |  | NC[C@@H]1CCOc2c(-c3ccncc3)cccc21 [Compound 1, (R)-(8-(pyridin-4-yl)chroman-4-yl)methanamine] |
| > 90 |  | NC[C@H]1CCOc2c(-c3ccncc3)cccc21 [Compound 2, (S)-(8-(pyridin-4-yl)chroman-4-yl)methanamine] |
| > 50 | 10 to 100 | CNC[C@@H]1CCOc2c(-c3ccncc3)cccc21 [Compound 3, (R)—N-methyl-1-(8-(pyridin-4-yl)chroman-4-yl)methanamine] |
| > 90 | 100 to 1000 | CNC[C@H]1CCOc2c(-c3ccncc3)cccc21 [Compound 4, (S)—N-methyl-1-(8-(pyridin-4-yl)chroman-4-yl)methanamine] |
